Laboratory results: patent US10918768B2, “Human skin equivalents expressing exogenous polypeptides” (Stratatech Corporation, priority 2003, dated 2021)

System: Staphylococcus carnosus
Experiment: antimicrobial activity assay (viable bacteria, CFU/ml)
Assay type: cell-based
Settings: synthetic peptide standard curve; 37° C. for 1.5 hr
Experimental: The antimicrobial activity assay employed Escherichia coli and Staphylococcus carnosus and is a modification of the protocol described by Porter and coworkers (Porter, E. M., et al., Infect Immun, 1997. 65(6): p. 2396-401). Briefly, gram-positive or gram-negative bacteria are grown overnight. The following day the test organisms are subcultured for 2.5 hr and working dilutions of 10^4 bacteria/ml for Escherichia coli or 10^5 bacteria/ml of Staphylococcus carnosus in 10 mM sodium phosphate (pH 7.4)-1% TSB are created. All the reactions mix 50 μl of experimental reagent (lysis, supernatants or purified protein) with 50 μl of bacterial suspension. These reactions are then incubated at 37° C. for 1.5 hr. The reactions are diluted 100-fold in 10 mM sodium phosphate (pH 7.4)-1% TSB and plated on TSB plates using a spiral plater (Spiral Biotech, Norwood, Mass.). The plates are then incubated for 12 to 16 hr at 37° C. Colonies on these plates are counted and the number of viable bacteria is determined and expressed as colony forming units per milliliter (CFU/ml).
This example describes the development of an assay to detect LL-37 antimicrobial activity. […] A standard curve for the antimicrobial activity of LL-37 was determined for gram-positive bacteria, S. carnosus using this synthetic peptide.

With `CC[C@H](C)[C@H](NC(=O)[C@H](CCCCN)NC(=O)[C@H](CCC(=O)O)NC(=O)[C@H](CCCCN)NC(=O)[C@H](CO)NC(=O)[C@H](CCCCN)NC(=O)[C@H](CCCNC(=N)N)NC(=O)[C@H](Cc1ccccc1)NC(=O)[C@H](Cc1ccccc1)NC(=O)[C@H](CC(=O)O)NC(=O)CNC(=O)[C@H](CC(C)C)NC(=O)[C@@H](N)CC(C)C)C(=O)NCC(=O)N[C@@H](CCCCN)C(=O)N[C@@H](CCC(=O)O)C(=O)N[C@@H](Cc1ccccc1)C(=O)N[C@@H](CCCCN)C(=O)N[C@@H](CCCNC(=N)N)C(=O)N[C@H](C(=O)N[C@H](C(=O)N[C@@H](CCC(N)=O)C(=O)N[C@@H](CCCNC(=N)N)C(=O)N[C@H](C(=O)N[C@@H](CCCCN)C(=O)N[C@@H](CC(=O)O)C(=O)N[C@@H](Cc1ccccc1)C(=O)N[C@@H](CC(C)C)C(=O)N[C@@H](CCCNC(=N)N)C(=O)N[C@@H](CC(N)=O)C(=O)N[C@@H](CC(C)C)C(=O)N[C@H](C(=O)N1CCC[C@H]1C(=O)N[C@@H](CCCNC(=N)N)C(=O)N[C@H](C(=O)N[C@@H](CCC(=O)O)C(=O)N[C@@H](CO)C(=O)O)[C@@H](C)O)C(C)C)[C@@H](C)CC)C(C)C)[C@@H](C)CC` [LL-37] the “concentration necessary to kill 50% (LC50) of S. carnosus” value was 0.9 µg/mL.
